Measured values as given in US20230321133A1, “COMPOSITIONS AND METHODS FOR TREATING BACTERIAL INFECTIONS” (THE TRUSTEES OF DARTMOUTH COLLEGE, priority 2020, published 2023).
Values after ≈ are worked out from the molar mass of the structure shown. Where two headings read alike, the source gives them in different places.

Legend:
[1] = tested on: planktonic P. aeruginosa strain PA14; assay: Planktonic growth yield assays, MIC and NIC of aztreonam; type: cell-based, Pseudomonas aeruginosa; settings: for MIC: Pseudomonas aeruginosa, read-out: minimal inhibitory concentration (MIC)
[2] = tested on: P. aeruginosa strain PA14 biofilm; assay: Crystal violet biofilm plate assay, strain PA14; settings: for sub-inhibitory antibiotic concentration for biofilm formation: PA14, absence of EVs; for biofilm formation, antibiotics alone: PA14, aztreonam 0.1 μg/ml or carbenicillin 5 μg/ml, no EVs
Procedure: Studies were also conducted to examine the time course of EV inhibition of biofilm formation using the crystal violet plate assay. […] Studies were conducted to determine if EV increase the ability of 3-lactam antibiotics to inhibit planktonic growth and biofilm formation by P. aeruginosa using the crystal violet biofilm plate assay^64. The subthreshold concentration of ATM (0.1 μg/ml) and CAR (5 μg/ml) for biofilm formation by P. aeruginosa in the absence of EV was determined.

P. aeruginosa proteins = assay: Unbiased proteomic (LC-MS/MS) analysis of P. aeruginosa exposed to EV; type: cell-based, Pseudomonas aeruginosa; settings: 0.1 μg/ml aztreonam
Text: EV targets MexGHI-OpmD, a multidrug efflux pump that contributes to resistance to fluoroquinolone antibiotics including ciprofloxacin. Hyper-expression of RND multidrug efflux pumps is frequent in clinical isolates of P. aeruginosa and contributes to the development of multi-drug resistance phenotypes in the clinical setting^17. To determine if EV containing let-7b target and reduce MexGHI-OpmD, an unbiased proteomic (LC-MS/MS) approach was used, as previously described 27.
Column 1-Genes involved in biofilm formation (PhzE1 and PhzE2 have been identified as targets of let-7b in preliminary experiments). Column 2-Percent change in protein abundance induced by EV, determined by LC-MS/MS. Column 3-IntaRNA targeting score for let-7b for each biofilm gene, indicating a highly energetically favorable interaction between let-7b and the target mRNA^51.
[…]. […] According to the comprehensive antibiotic resistance database (CARD)57, eight of the 15 aztreonam-induced proteins have homology to beta-lactam resistance proteins in other bacteria. […]. […] This prediction is consistent with our observed phenotype of EV inhibition of biofilm formation. […].

[3] = tested on: clinical isolates of P. aeruginosa; assay: Crystal violet biofilm plate assay, clinical isolates; settings: six clinical isolates, carbenicillin 20 μg/ml, absence of EVs
Procedure: It was also assessed whether EVs increase the ability of aztreonam to inhibit biofilm formation by clinical isolates of P. aeruginosa.

SMILES | planktonic growth ([1]; PA14, aztreonam 0.8 μg/ml alone compared to controls) | non-inhibitory concentration (NIC) ([1]; PA14, control (no EVs)) [µg/mL] | non-inhibitory concentration (NIC) ([1]; PA14, with EVs) [µg/mL] | MIC ([1]; PA14, PA14, control (no EVs)) [µg/mL] | MIC ([1]; PA14, PA14, with EVs) [µg/mL] | sub-inhibitory antibiotic concentration for biofilm formation [2] [µg/mL] | biofilm formation, antibiotics alone [2] | PA14_48790 and PA14_16020 abundance (P. aeruginosa proteins) | beta-lactamase AmpC abundance (P. aeruginosa proteins; 16 hours, p<0.05) | number of proteins significantly induced by at least 50% (P. aeruginosa proteins; p<0.05 and log 2 fold change>0.58, in addition to AmpC) | biofilm formation [3]
C[C@H]1[C@H](NC(=O)/C(=N\OC(C)(C)C(=O)O)c2csc(N)n2)C(=O)N1S(=O)(=O)O [aztreonam] | significantly reduced | 0.6 | 0.1 | 2 (≈ 4.59 µM) | 0.8 (≈ 1.84 µM) | 0.1 | did not significantly alter | significantly induced | significantly induced | 15 | –
CC1(C)S[C@@H]2[C@H](NC(=O)C(C(=O)O)c3ccccc3)C(=O)N2[C@H]1C(=O)O (stereo partly shown) [carbenicillin] | – | – | – | – | – | 5 | did not significantly alter | – | – | – | did not significantly reduce
